Laboratory results as given in ChEMBL document CHEMBL3046811, “Syntheses and in vitro biological screening of 1-aryl-10H-[1,2,4]triazolo[3,4:3,4][1,2,4]triazino[5,6-b]indoles” (Med Chem Res, 2013).

Tests used:
[1] = tested on: Respiratory syncytial virus; assay: Antiviral activity against Respiratory syncytial virus infected African green monkey Vero 76 cells assessed as reduction in plaque number treated after viral infection measured after 5 days by plaque reduction assay; assay type: functional, organism-based; conditions: human respiratory syncytial virus, 120 h
[2] = tested on: Vesicular stomatitis virus; assay: Antiviral activity against Vesicular stomatitis virus infected African green monkey Vero 76 cells assessed as reduction in plaque number treated after viral infection measured after 2 days by plaque reduction assay; assay type: functional, organism-based; conditions: 48 h
[3] = Cytotoxicity against Chlorocebus aethiops (African green monkey) Vero 76 cells assessed as inhibition of cell viability after 48 to 120 hr by MTT assay; assay type: cell-based; conditions: chlorocebus sabaeus
Poliovirus 1 = assay: Antiviral activity against Human poliovirus 1 strain Sabin infected African green monkey Vero 76 cells assessed as reduction in plaque number treated after viral infection measured after 2 days by plaque reduction assay; assay type: functional, organism-based; conditions: Enterovirus C, 48 h
[4] = tested on: Human immunodeficiency virus 1; assay: Antiviral activity against Human immunodeficiency virus 1 infected human MT4 cells assessed as protection against virus-induced cytopathogenicity treated before viral infection measured after 4 days by MTT assay; assay type: functional, organism-based; conditions: Human immunodeficiency virus 1, MT4, 96 h
[5] = Cytotoxicity against Homo sapiens (human) MT4 cells assessed as inhibition of cell vaibility after 96 hr by MTT assay; assay type: cell-based
[6] = Cytotoxicity against Mesocricetus auratus (Syrian golden hamster) BHK21cells assessed as inhibition of cell viability after 48 to 120 hr by MTT assay; assay type: cell-based; conditions: BHK-21 cells
Human alphaherpesvirus 1 = assay: Antiviral activity against Human herpesvirus 1 infected African green monkey Vero 76 cells assessed as reduction in plaque number treated after viral infection measured after 3 days by plaque reduction assay; assay type: functional, organism-based; conditions: Human alphaherpesvirus 1, Vero, 72 h
Vaccinia virus = assay: Antiviral activity against Vaccinia virus infected African green monkey Vero 76 cells assessed as reduction in plaque number treated after viral infection measured after 3 days by plaque reduction assay; assay type: functional, organism-based; conditions: Orthopoxvirus vaccinia, 72 h
[7] = tested on: Mammalian orthoreovirus 1; assay: Antiviral activity against Mammalian orthoreovirus 1 infected Syrian hamster BHK-21 cells assessed as protection against virus-induced cytopathogenicity treated 1 hr after viral infection measured after 3-4 days by MTT method; assay type: functional, organism-based; conditions: Mammalian orthoreovirus 1, BHK-21
[8] = tested on: Bovine viral diarrhea virus 1; assay: Antiviral activity against Bovine viral diarrhea virus 1 infected bovine MDBK cells assessed as protection against virus-induced cytopathogenicity treated 1 hr after viral infection measured after 3-4 days by MTT method; assay type: functional, organism-based; conditions: Bovine viral diarrhea virus isolates and strains
Coxsackievirus B2 = assay: Antiviral activity against Human coxsackievirus B2 infected in African green monkey Vero 76 cells assessed as reduction in plaque number treated after viral infection measured after 3 days by plaque reduction assay; assay type: functional, organism-based; conditions: Enterovirus B, 72 h
Yellow fever virus = assay: Antiviral activity against Yellow fever virus infected Syrian hamster BHK-21 cells assessed as protection against virus-induced cytopathogenicity treated 1 hr after viral infection measured after 3-4 days by MTT method; assay type: functional, organism-based
[9] = Cytotoxicity against Bos taurus (bovine) MDBK cells assessed as inhibition of cell viability after 48 to 120 hr by MTT assay; assay type: cell-based; conditions: cattle

Compound	EC50 [1] [µM]	EC50 [2] [µM]	CC50 [3] [µM]	EC50 (Poliovirus 1) [µM]	EC50 [4] [µM]	CC50 at 96 h [5] [µM]	CC50 [6] [µM]	EC50 (Human alphaherpesvirus 1) [µM]	EC50 (Vaccinia virus) [µM]	EC50 [7] [µM]	EC50 [8] [µM]	EC50 (Coxsackievirus B2) [µM]	EC50 (Yellow fever virus) [µM]	CC50 [9] [µM]
Oc1ccc(-c2nnc3nnc4c5ccccc5[nH]c4n23)cc1	> 100	> 100	> 100	> 100	> 100	> 100	> 100	> 100	> 100	> 100	> 100	> 100	> 100	> 100
c1ccc(Oc2cccc(-c3nnc4nnc5c6ccccc6[nH]c5n34)c2)cc1	> 80	> 80	80	> 80	> 100	> 100	100	> 80	> 80	> 100	> 100	> 80	> 100	> 100
COc1ccc(OC)c(-c2nnc3nnc4c5ccccc5[nH]c4n23)c1	> 15	> 15	15	> 15	> 4	4	30	> 15	> 15	> 30	> 12	> 15	> 30	12
COc1cccc(-c2nnc3nnc4c5ccccc5[nH]c4n23)c1	> 65	> 65	65	> 65	> 47	47	> 100	> 65	> 65	> 100	> 64	> 65	> 100	64
COc1ccccc1-c1nnc2nnc3c4ccccc4[nH]c3n12	> 20	> 20	20	> 20	> 5	5	23	> 20	> 20	> 23	> 17	> 20	> 23	17
Oc1ccccc1-c1nnc2nnc3c4ccccc4[nH]c3n12	> 70	> 70	70	> 70	> 100	> 100	> 100	> 70	> 70	> 100	> 100	> 70	> 100	> 100
Oc1cccc(-c2nnc3nnc4c5ccccc5[nH]c4n23)c1	> 100	> 100	> 100	> 100	> 100	> 100	> 100	> 100	> 100	> 100	> 100	> 100	> 100	> 100
Cc1ccc(-c2nnc3nnc4c5ccccc5[nH]c4n23)cc1	> 100	> 100	≥ 100	> 100	> 100	> 100	> 100	> 100	> 100	> 100	> 100	> 100	> 100	> 100
C[C@@]1(O)[C@H](O)[C@@H](CO)O[C@H]1n1cnc2c(=O)[nH]c(N)nc21 [2'-B-METHYL-GUANOSINE]	–	–	–	–	–	–	–	–	–	–	1.8	–	2.5	–
C#C[C@@]1(O)[C@H](O)[C@@H](CO)O[C@H]1n1ccc(N)nc1=O [2'-ETHYNYL-D-CYTIDINE]	–	–	–	18	–	–	–	–	–	–	–	23	–	–
COc1c(C)c2c(c(O)c1C/C=C(\C)CCC(=O)O)C(=O)OC2 [MYCOPHENOLIC ACID]	–	–	–	–	–	–	–	–	1.8	–	–	–	–	–
Cc1cn([C@H]2C[C@H](N=[N+]=[N-])[C@@H](CO)O2)c(=O)[nH]c1=O [ZIDOVUDINE]	–	–	–	–	0.01	–	–	–	–	–	–	–	–	–
